What was measured:
[1] = tested on: α-tocopherol transfer protein (α-TTP); details: relative affinity, RRR-α-tocopherol essentially 100%; cited from earlier work
[2] = DPPH assay (antioxidant activity, free radical scavenging); format: biochemical; details: 5 concentrations, 0.1 mM DPPH, water:methanol 1:1, reading after 30 min at 518 nm, read-out: IC50, the point at which 50% of DPPH had been reduced
From the text: Assays that may be used to measure free radical scavenging properties include, for example, the DPPH assay and the ABTS assay. The 1,1-diphenyl-2-picryl hydrazyl (DPPH) radical is a stable free radical of purple color. Adding an antioxidant reduces the DPPH radical, which can be observed by color change (to yellow) in a spectrophotometer, for example by measuring absorbance at 518 nm. Mixing 2,2-α-azino-bis-(3-ethylbenzthiazoline-6-sulfonic acid) (ABTS) and hydrogen peroxide produces the ABTS radical (ABTS^●). Subsequent incubation with peroxidase produces the radical cation ABTS^•+. Adding an antioxidant causes an attenuation of the color change, which can be measured for example at 734 nm. The activity of an antioxidant is conventionally expressed as the concentration of an equivalent millimolar standard Trolox solution.
A stock solution of DPPH in methanol, 0.4 mM was prepared and stored in the dark at −20° C. prior to use. A test sample was diluted with water (pH=3.5 prepared by addition of acetic acid) to 1 ml. The sample was then added to the dilute DPPH stock in methanol to obtain a final sample volume of 2 ml with a 0.1 mM DPPH concentration. The water:methanol ratio was 1:1 (v/v). A blank was prepared with 1 ml of water (pH=3.5) and pure methanol. […] Absorption readings were taken after 30 min at 518 nm using a Geminys 6 spectrophotometer (Thermo Scientific, Waltham, Mass.). […]

SMILES | affinity of Alpha-TTP [1] | IC50 [2]
Cc1c(C)c2c(c(C)c1O)CC[C@@](C)(CCC[C@H](C)CCC[C@H](C)CCCC(C)C)O2 [RRR-α-tocopherol] | ~100% | 
Cc1c(C)c2c(c(C)c1O)CCC(C)(C(=O)O)O2 (stereo not shown) [Trolox, 6-hydroxy-2,5,7,8-tetramethylchroman-2-carboxylic acid] | 9% | 
COC(=O)C(Cc1c[nH]cn1)NC(=O)CCNC(=O)CCCCCCCCCCCC[C@]1(C)CCc2c(C)c(O)c(C)c(C)c2O1 (stereo partly drawn) [VECAR, methyl 2-(3-(13-((R)-6-hydroxy-2,5,7,8-tetramethylchroman-2-yl)tridecanamido)propanamido)-3-(1H-imidazol-4-yl)propanoate] |  | 24.9 ± 1.4 µM
Cc1c(C)c2c(c(C)c1O)CC[C@@](C)(CCC[C@H](C)CCC[C@H](C)CCCC(C)C)O2 [alpha-tocopherol] |  | 24.4 ± 1.5 µM
CC(=O)Oc1c(C)c(C)c2c(c1C)CCC(C)(CCC[C@H](C)CCC[C@H](C)CCCC(C)C)O2 (stereo partly drawn) [α-tocopherol acetate] | 2% | 
Cc1cc(O)c(C)c2c1O[C@](C)(CCC[C@H](C)CCC[C@H](C)CCCC(C)C)CC2 [β-tocopherol] | 38% | 
Cc1c(O)cc2c(c1C)O[C@](C)(CCC[C@H](C)CCC[C@H](C)CCCC(C)C)CC2 [γ-tocopherol] | 9% | 

Source: patent US9220787B2, “Vitamin E conjugates, and their uses as antioxidants and prodrug delivery vehicles” (Board of Supervisors of Louisiana State University And …, priority 2010, dated 2015)
